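Protocol summary: plate cells (96-well), add compound at 5 concentrations, incubate 48 h, interpolate endpoints linearly. At the GI50, growth is halved.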 The source made the active and inactive calls. No stated cut-off is given here; in the data, active = GI50 up to about 1.1 µM and inactive = higher. Peptide text beside a SMILES is read from it. * marks the point of attachment. Cbz = O=C(OCc1ccccc1)*; NHNH2 = NN*
Columns and labels:
Test in all cases: inhibition of tumour cell growth, NCI panel, 48 h
SK-MEL-2 = tested on: SK-MEL-2
SW-620 = tested on: SW-620
OVCAR-4 = tested on: OVCAR-4
HL-60 = tested on: HL-60
A549 = tested on: A549
K562 = tested on: K562
COLO 205 = tested on: COLO 205
NCI/ADR-RES = tested on: NCI/ADR-RES
NCI-H460 = tested on: NCI-H460
UACC-257 = tested on: UACC-257
SNB-75 = tested on: SNB-75
NCI-H522 = tested on: NCI-H522
SNB-19 = tested on: SNB-19
DU-145 = tested on: DU-145
CAKI-1 = tested on: CAKI-1
UACC-62 = tested on: UACC-62
MCF7 = tested on: MCF7
LOX IMVI = tested on: LOX IMVI
SF-295 = tested on: SF-295
MDA-MB-435 = tested on: MDA-MB-435

SMILES | GI50 (SK-MEL-2) | GI50 (SW-620) | GI50 (OVCAR-4) | GI50 (HL-60) | GI50 (A549) | GI50 (K562) | GI50 (COLO 205) | GI50 (NCI/ADR-RES) | GI50 (NCI-H460) | GI50 (UACC-257) | GI50 (SNB-75) | GI50 (NCI-H522) | GI50 (SNB-19) | GI50 (DU-145) | GI50 (CAKI-1) | GI50 (UACC-62) | GI50 (MCF7) | GI50 (LOX IMVI) | GI50 (SF-295) | GI50 (MDA-MB-435)
NN/C(=N\S(=O)(=O)c1ccc(-c2ccccn2)s1)Nc1ccc(Cl)cc1 | > 100 µM (inactive) | > 100 µM (inactive) | 85.9 µM (inactive) | > 100 µM (inactive) | 59 µM (inactive) | > 100 µM (inactive) | > 100 µM (inactive) | > 100 µM (inactive) | > 100 µM (inactive) | > 100 µM (inactive) | 25.6 µM (inactive) | 0.265 µM (active) | 42.1 µM (inactive) | > 100 µM (inactive) | 58.6 µM (inactive) | > 100 µM (inactive) | > 100 µM (inactive) | > 100 µM (inactive) | 52.5 µM (inactive) | 
COC(=O)CC(NC(=O)OCc1ccccc1)C(=O)NC(CC(=O)OC)C(=O)NC(CC(=O)OC)C(=O)NC(CC(=O)OC)C(=O)NC(CC(=O)OC)C(=O)NC(CC(=O)OC)C(=O)NN (centres undefined) (Cbz-D(OMe)D(OMe)D(OMe)D(OMe)D(OMe)D(OMe)-NHNH2; configuration not given here) | > 100 µM (inactive) | > 100 µM (inactive) | > 100 µM (inactive) | > 100 µM (inactive) |  | > 100 µM (inactive) | > 100 µM (inactive) |  | > 100 µM (inactive) | > 100 µM (inactive) | > 100 µM (inactive) |  | > 100 µM (inactive) |  |  | > 100 µM (inactive) | > 100 µM (inactive) | > 100 µM (inactive) | > 100 µM (inactive) | > 100 µM (inactive)
N#Cc1[nH]c(=O)n(-c2ccccc2)c1N | > 10 µM (inactive) | > 10 µM (inactive) | > 10 µM (inactive) | > 10 µM (inactive) | > 10 µM (inactive) | > 10 µM (inactive) | > 10 µM (inactive) | > 10 µM (inactive) | > 10 µM (inactive) | > 10 µM (inactive) | 6.52 µM (inactive) |  | > 10 µM (inactive) | > 10 µM (inactive) |  | > 10 µM (inactive) |  | 0.0995 µM (active) | 0.279 µM (active) | > 10 µM (inactive)
Cc1ccc(/N=N/c2c(O)ccc3ccccc23)cc1 | > 100 µM (inactive) | 63.4 µM (inactive) | > 100 µM (inactive) |  | > 100 µM (inactive) | > 10 µM (inactive) | > 100 µM (inactive) | > 100 µM (inactive) |  | > 100 µM (inactive) | > 100 µM (inactive) | > 100 µM (inactive) | 95.7 µM (inactive) | > 100 µM (inactive) | > 100 µM (inactive) | > 100 µM (inactive) |  | > 100 µM (inactive) | > 100 µM (inactive) | > 100 µM (inactive)
Cc1ccc(S(=O)(=O)NC(=O)NCCC(=O)O)cc1 | > 100 µM (inactive) | > 100 µM (inactive) | > 100 µM (inactive) | > 100 µM (inactive) | > 100 µM (inactive) | > 100 µM (inactive) | > 100 µM (inactive) |  | > 100 µM (inactive) | > 100 µM (inactive) | > 100 µM (inactive) | > 100 µM (inactive) | > 100 µM (inactive) | > 100 µM (inactive) |  | > 100 µM (inactive) | > 100 µM (inactive) | > 100 µM (inactive) | > 100 µM (inactive) | 
CCN(CC)c1nc(N(C)C)c2ccccc2n1 | 30.1 µM (inactive) | 32.1 µM (inactive) | 54.1 µM (inactive) | 41.1 µM (inactive) | 25.8 µM (inactive) | 10.6 µM (inactive) | 19.4 µM (inactive) | 22.5 µM (inactive) | 25.4 µM (inactive) | 26.7 µM (inactive) | 34.8 µM (inactive) | 18.5 µM (inactive) | 39.9 µM (inactive) |  | 58.9 µM (inactive) | 14.9 µM (inactive) | 29.2 µM (inactive) | 30.1 µM (inactive) | 33.1 µM (inactive) | 28.9 µM (inactive)
